Experimental data: patent publication US20250361469A1, “Lymph Node on a Chip Device and Method” (New York University, priority 2024, published 2025)

What was measured:
[1] = tested on: DCs and T cells in LN chip; assay: OVA I model antigen initiating adaptive immune process in the LN chip; type: cell-based, human
DCs and FRCs = assay: CCL19 and CCL21 secretion by DCs and FRCs in paracortical area of LN chip under TNF-α (ELISA); type: cell-based, human; details: inflammatory conditions affected by TNF-α

Substance	DC maturation (imDCs to mDCs) ([1]; OVA I as model antigen in LN chip)	T cell activation ([1]; OVA I-induced mDCs vs imDCs)	T cell migration ([1]; OVA I-induced mDCs vs imDCs)	T cell proliferation ([1]; OVA I-induced mDCs vs imDCs)	secretion of CCL19 by DCs and FRCs (DCs and FRCs)	secretion of CCL21 by DCs and FRCs (DCs and FRCs)
Ovalbimin [OVA I, model antigen (Sigma Aldrich) to initiate the adaptive immune process in the LN chip]	transformed into mDCs	enhanced	enhanced	enhanced		
TNF-α					increases	increases
